ChEMBL document CHEMBL1129488, “Controlled modification of acidity in cholecystokinin B receptor antagonists: N-(1,4-benzodiazepin-3-yl)-N'-[3-(tetrazol-5-ylamino) phenyl]ureas” (J Med Chem, 1996)

How the values were obtained:
physchem [1] = details: buffer, pH 7.4
Description: Lipophilicity was measured at pH 7.4

[2] = buffer, pH 0
Description: The solubility is evaluated at a pH 0f 7.4

physchem [3] = test: physchem
Description: pKa value is evaluated by nonlinear regression analysis of pH-dependent partition measurements.

[4] = pKa value for the compound is determined by potentiometric titration.; format: physicochemical
[5] = molecular target: T1, Cholecystokinin receptor type A (Rattus norvegicus, UniProt P30551)
T1 sequence (P30551 whole entry): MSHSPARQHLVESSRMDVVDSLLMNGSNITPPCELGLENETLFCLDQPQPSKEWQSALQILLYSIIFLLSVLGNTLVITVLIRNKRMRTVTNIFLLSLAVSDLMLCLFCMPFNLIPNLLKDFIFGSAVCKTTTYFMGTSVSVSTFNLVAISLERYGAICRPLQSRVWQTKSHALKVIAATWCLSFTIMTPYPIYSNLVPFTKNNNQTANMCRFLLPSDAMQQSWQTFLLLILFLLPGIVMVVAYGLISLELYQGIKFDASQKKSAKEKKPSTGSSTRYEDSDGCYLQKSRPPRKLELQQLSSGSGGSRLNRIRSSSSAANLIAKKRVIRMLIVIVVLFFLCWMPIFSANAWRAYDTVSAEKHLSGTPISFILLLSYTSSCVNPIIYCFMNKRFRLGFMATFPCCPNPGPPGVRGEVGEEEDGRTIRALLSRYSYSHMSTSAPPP
Description: Inhibition of [125 I]BH CCK-8S binding to Cholecystokinin type A receptor in pancreatic tissue

[6] = pKa value is evaluated by nonlinear regression analysis of pH-dependent partition measurements; pKa could not be reliably determined due to poor solubility at low pHs; format: physicochemical

CN1C(=O)[C@H](NC(=O)Nc2ccc3c(c2)N(c2nn[nH]n2)CC3)N=C(c2ccccc2)c2ccccc21
logD (physchem [1]): 1.38 | S [2]: 0.87 µg/mL | pKa (physchem [3]): 4.8

O=[N+]([O-])c1ccc(CNc2nn[nH]n2)cc1
pKa [4]: 5.53

Cc1ccc(NC(=O)N[C@@H]2N=C(C3CCCCC3)c3ccccc3N(C)C2=O)cc1N(C)c1nn[nH]n1
S [2]: 0.49 µg/mL | IC50 [5]: 1.6 µM

O=[N+]([O-])c1ccc2c(c1)CCN2c1nn[nH]n1
pKa [4]: 4.02

CN1C(=O)[C@H](NC(=O)Nc2cccc(CNc3nn[nH]n3)c2)N=C(c2ccccc2)c2ccccc21
logD (physchem [1]): 1.47 | S [2]: 0.02 µg/mL | IC50 [5]: 3 µM | pKa (physchem [3]): 5.9

O=[N+]([O-])c1ccc(Nc2nn[nH]n2)cc1
pKa [4]: 4.23

CN1C(=O)[C@H](NC(=O)Nc2cccc(Nc3nn[nH]n3)c2)N=C(c2ccccc2)c2ccccc21
logD (physchem [1]): 0.89 | S [2]: 0.1 µg/mL | IC50 [5]: 3 µM | pKa (physchem [3]): 5.1

Cc1ccc(NC(=O)N[C@@H]2N=C(c3ccccc3)c3ccccc3N(C)C2=O)cc1Nc1nn[nH]n1
logD (physchem [1]): 1.37 | S [2]: 0.88 µg/mL | IC50 [5]: 3 µM | pKa (physchem [3]): 1.37

CN(c1ccc([N+](=O)[O-])cc1)c1nn[nH]n1
pKa [4]: 4.46

CN1C(=O)[C@H](NC(=O)Nc2cccc(N(C)c3nn[nH]n3)c2)N=C(C2CCCCC2)c2ccccc21
S [2]: 60 µg/mL

Cc1ccc(NC(=O)N[C@@H]2N=C(C3CCCCC3)c3ccccc3N(C)C2=O)cc1Nc1nn[nH]n1
S [2]: 57 µg/mL

CN1C(=O)[C@H](NC(=O)Nc2cccc(CNc3nn[nH]n3)c2)N=C(C2CCCCC2)c2ccccc21
S [2]: 3.7 µg/mL

CN1C(=O)[C@H](NC(=O)Nc2cccc(N(C)c3nn[nH]n3)c2)N=C(c2ccccc2)c2ccccc21
logD (physchem [1]): 1.14 | S [2]: 0.16 µg/mL | IC50 [5]: 3 µM | pKa [6]: Insoluble

Cc1cc([N+](=O)[O-])ccc1N(C)c1nn[nH]n1
pKa [4]: 5.02

Cc1cc([N+](=O)[O-])ccc1Nc1nn[nH]n1
pKa [4]: 4.46

Cc1cccc(NC(=O)N[C@@H]2N=C(c3ccccc3)c3ccccc3N(C)C2=O)c1 [L-365260]
S [2]: < 0.002 µg/mL
